Data from PubChem BioAssay (NCI).
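Results reflect a 48-hour exposure of cells in 96-well plates to compound at five concentrations. The concentration for 50% growth inhibition is given as GI50. TGI is the concentration that stops growth completely.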

Legend:
Experiment in all cases: NCI-60 cell line screen, 48 h
HL-60(TB) leukemia = test system: HL-60(TB) leukemia
NCI-H23 lung = test system: NCI-H23 lung
T-47D breast = test system: T-47D breast
ACHN renal = test system: ACHN renal
COLO 205 colon = test system: COLO 205 colon
SK-OV-3 ovarian = test system: SK-OV-3 ovarian
HCT-116 colon = test system: HCT-116 colon
NCI-H226 lung = test system: NCI-H226 lung
LOX IMVI melanoma = test system: LOX IMVI melanoma
786-0 renal = test system: 786-0 renal
KM12 colon = test system: KM12 colon
DU-145 prostate = test system: DU-145 prostate
M14 melanoma = test system: M14 melanoma
SR leukemia = test system: SR leukemia
OVCAR-3 ovarian = test system: OVCAR-3 ovarian
NCI/ADR-RES ovarian = test system: NCI/ADR-RES ovarian
MALME-3M melanoma = test system: MALME-3M melanoma
SK-MEL-2 melanoma = test system: SK-MEL-2 melanoma
NCI-H522 lung = test system: NCI-H522 lung
RXF 393 renal = test system: RXF 393 renal
EKVX NSCLC = test system: EKVX NSCLC
SK-MEL-5 melanoma = test system: SK-MEL-5 melanoma
MCF7 breast = test system: MCF7 breast
BT-549 breast = test system: BT-549 breast
OVCAR-4 ovarian = test system: OVCAR-4 ovarian
CCRF-CEM leukemia = test system: CCRF-CEM leukemia
UO-31 renal = test system: UO-31 renal
HOP-62 NSCLC = test system: HOP-62 NSCLC
MDA-MB-435 = test system: MDA-MB-435
SK-MEL-28 melanoma = test system: SK-MEL-28 melanoma
IGROV1 ovarian = test system: IGROV1 ovarian
SF-539 CNS = test system: SF-539 CNS
SNB-19 CNS = test system: SNB-19 CNS
MDA-MB-468 breast = test system: MDA-MB-468 breast
OVCAR-8 ovarian = test system: OVCAR-8 ovarian
SW-620 colon = test system: SW-620 colon
MOLT-4 leukemia = test system: MOLT-4 leukemia
CAKI-1 renal = test system: CAKI-1 renal
HT29 colon = test system: HT29 colon
SF-295 CNS = test system: SF-295 CNS
SN12C renal = test system: SN12C renal
K-562 leukemia = test system: K-562 leukemia
HS 578T breast = test system: HS 578T breast
UACC-62 melanoma = test system: UACC-62 melanoma
NCI-H460 lung = test system: NCI-H460 lung
UACC-257 melanoma = test system: UACC-257 melanoma
A498 renal = test system: A498 renal
MDA-MB-231 breast = test system: MDA-MB-231 breast
OVCAR-5 ovarian = test system: OVCAR-5 ovarian
SF-268 CNS = test system: SF-268 CNS
RPMI-8226 leukemia = test system: RPMI-8226 leukemia
HCT-15 colon = test system: HCT-15 colon
A549 NSCLC = test system: A549 NSCLC
HCC-2998 colon = test system: HCC-2998 colon
HOP-92 NSCLC = test system: HOP-92 NSCLC
U251 CNS = test system: U251 CNS
SNB-75 CNS = test system: SNB-75 CNS
TK-10 renal = test system: TK-10 renal
PC-3 prostate = test system: PC-3 prostate

O=C(CNc1nc(-c2ccccc2)cs1)Nc1ccc(Cl)cc1[N+](=O)[O-]
GI50 (HL-60(TB) leukemia): 2.03 µM
TGI (HL-60(TB) leukemia): 6.56 µM
GI50 (NCI-H23 lung): 3.08 µM
TGI (NCI-H23 lung): 12.6 µM
GI50 (T-47D breast): 2.46 µM
TGI (T-47D breast): 8.61 µM
GI50 (ACHN renal): 2.77 µM
TGI (ACHN renal): 10.5 µM
GI50 (COLO 205 colon): 2.61 µM
TGI (COLO 205 colon): 5.91 µM
GI50 (SK-OV-3 ovarian): 4.65 µM
TGI (SK-OV-3 ovarian): 19 µM
GI50 (HCT-116 colon): 2.95 µM
TGI (HCT-116 colon): 10.2 µM
GI50 (NCI-H226 lung): 2.64 µM
TGI (NCI-H226 lung): 13 µM
GI50 (LOX IMVI melanoma): 1.32 µM
TGI (LOX IMVI melanoma): 2.88 µM
GI50 (786-0 renal): 3.75 µM
TGI (786-0 renal): 14.2 µM
GI50 (KM12 colon): 3.36 µM
TGI (KM12 colon): 13 µM
GI50 (DU-145 prostate): 4.78 µM
TGI (DU-145 prostate): 18.7 µM
GI50 (M14 melanoma): 3.4 µM
TGI (M14 melanoma): 12.7 µM
GI50 (SR leukemia): 3.75 µM
TGI (SR leukemia): > 100 µM
GI50 (OVCAR-3 ovarian): 2.36 µM
TGI (OVCAR-3 ovarian): 5.72 µM
GI50 (NCI/ADR-RES ovarian): 2.31 µM
TGI (NCI/ADR-RES ovarian): 6.53 µM
GI50 (MALME-3M melanoma): 2.21 µM
TGI (MALME-3M melanoma): 5.51 µM
GI50 (SK-MEL-2 melanoma): 3.04 µM
TGI (SK-MEL-2 melanoma): 9.74 µM
GI50 (NCI-H522 lung): 1.8 µM
TGI (NCI-H522 lung): 3.95 µM
GI50 (RXF 393 renal): 1.99 µM
TGI (RXF 393 renal): 6.5 µM
GI50 (EKVX NSCLC): 1.82 µM
TGI (EKVX NSCLC): 9.71 µM
GI50 (SK-MEL-5 melanoma): 1.93 µM
TGI (SK-MEL-5 melanoma): 4.26 µM
GI50 (MCF7 breast): 2.84 µM
TGI (MCF7 breast): 10.3 µM
GI50 (BT-549 breast): 2.84 µM
TGI (BT-549 breast): 5.89 µM
GI50 (OVCAR-4 ovarian): 3.26 µM
TGI (OVCAR-4 ovarian): 13 µM
GI50 (CCRF-CEM leukemia): 3.29 µM
TGI (CCRF-CEM leukemia): > 100 µM
GI50 (UO-31 renal): 1.62 µM
TGI (UO-31 renal): 6.97 µM
GI50 (HOP-62 NSCLC): 4.23 µM
TGI (HOP-62 NSCLC): 17.3 µM
GI50 (MDA-MB-435): 3.25 µM
TGI (MDA-MB-435): 9.42 µM
GI50 (SK-MEL-28 melanoma): 2.9 µM
TGI (SK-MEL-28 melanoma): 8.79 µM
GI50 (IGROV1 ovarian): 2.9 µM
TGI (IGROV1 ovarian): 12.1 µM
GI50 (SF-539 CNS): 1.84 µM
TGI (SF-539 CNS): 4.05 µM
GI50 (SNB-19 CNS): 3.78 µM
TGI (SNB-19 CNS): 15 µM
GI50 (MDA-MB-468 breast): 2.02 µM
TGI (MDA-MB-468 breast): 5.69 µM
GI50 (OVCAR-8 ovarian): 3.25 µM
TGI (OVCAR-8 ovarian): 13.1 µM
GI50 (SW-620 colon): 4.1 µM
TGI (SW-620 colon): 14.4 µM
GI50 (MOLT-4 leukemia): 2.49 µM
TGI (MOLT-4 leukemia): 13.9 µM
GI50 (CAKI-1 renal): 1.85 µM
TGI (CAKI-1 renal): 9.85 µM
GI50 (HT29 colon): 3.79 µM
TGI (HT29 colon): 14.4 µM
GI50 (SF-295 CNS): 2.71 µM
TGI (SF-295 CNS): 11.1 µM
GI50 (SN12C renal): 2.81 µM
TGI (SN12C renal): 10.7 µM
GI50 (K-562 leukemia): 2.49 µM
TGI (K-562 leukemia): > 100 µM
GI50 (HS 578T breast): 2.39 µM
TGI (HS 578T breast): 9.58 µM
GI50 (UACC-62 melanoma): 1.33 µM
TGI (UACC-62 melanoma): 3.25 µM
GI50 (NCI-H460 lung): 4.18 µM
TGI (NCI-H460 lung): 17.5 µM
GI50 (UACC-257 melanoma): 5.13 µM
TGI (UACC-257 melanoma): 17 µM
GI50 (A498 renal): 7.9 µM
TGI (A498 renal): 20.4 µM
GI50 (MDA-MB-231 breast): 1.63 µM
TGI (MDA-MB-231 breast): 3.54 µM
GI50 (OVCAR-5 ovarian): 2.49 µM
TGI (OVCAR-5 ovarian): 8.24 µM
GI50 (SF-268 CNS): 2.1 µM
TGI (SF-268 CNS): 7.08 µM
GI50 (RPMI-8226 leukemia): 2.67 µM
TGI (RPMI-8226 leukemia): > 100 µM
GI50 (HCT-15 colon): 1.98 µM
TGI (HCT-15 colon): 4.53 µM
GI50 (A549 NSCLC): 3.93 µM
TGI (A549 NSCLC): 14.5 µM
GI50 (HCC-2998 colon): 2.71 µM
TGI (HCC-2998 colon): 10.2 µM
GI50 (HOP-92 NSCLC): 1.99 µM
TGI (HOP-92 NSCLC): 8.19 µM
GI50 (U251 CNS): 2.06 µM
TGI (U251 CNS): 6.56 µM
GI50 (SNB-75 CNS): 1.24 µM
TGI (SNB-75 CNS): 7.02 µM
GI50 (TK-10 renal): 6.12 µM
TGI (TK-10 renal): 17.9 µM
GI50 (PC-3 prostate): 2.78 µM
TGI (PC-3 prostate): 16.2 µM
